From patent US11028090B2 (Dong Wha Pharm. Co., Ltd., priority 2017, dated 2021)
Where two headings read alike, the source gives them in different places.

Experiments:
[1] = biological target: BRD4 (BD1+BD2) bromodomain (Homo sapiens (Human), UniProt O60885); assay: BRD4 binding inhibition (AlphaScreen, GST-BRD4 vs tetraacetylated histone H4 peptide)
Method in brief: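 AlphaScreen read after 30 min dark incubation at room temperature with glutathione acceptor/streptavidin donor beads (10 μg/ml each). The beads were added to compound plus 100 nM biotin-H4 (K5,8,12,16-acetyl) peptide and 100 nM GST-BRD4 BD1+BD2 in pH 7.4 HEPES/Tween/BSA/DTT buffer.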

[2] = system: acute myelogenous leukemia cells (MV-4-11 cells); assay: Cytotoxicity to acute myelogenous leukemia cells (MV-4-11 cells), CCK-8; settings: Homo sapiens, MV4-11, 72 h
Experimental: The following experiment was performed to evaluate the cytotoxicity of [1,2,4]triazolo[4,3-a]quinoxaline derivative according to the present invention to acute myelogenous leukemia cells (MV-4-11 cells).
Acute myelogenous leukemia cells (MV-4-11 cells) were distributed in a 96 well plate at the density of 5×10^3 cells/well. The plated cells were treated with the compounds of the present invention dissolved in DMSO at the different concentrations ranging from 0.01 μM to 10 μM. 72 hours later, the activities of the compounds were determined using CCK-8 reagent.

[3] = GST-BRD4 (BD1+BD2) vs biotinylated acetyl-histone H4 peptide, AlphaScreen, read-out: BRD4 IC50
[4] = read-out: MV-4-11 Cytotoxicity IC50
[5] = GST-BRD4 (BD1+BD2) / biotinylated acetyl-histone H4 (Lys5,8,12,16) peptide, read-out: IC50, BRD4 binding inhibition
[6] = read-out: IC50, cytotoxicity against acute myelogenous leukemia cells

Row | SMILES | IC50 [1, 3] [nM] | IC50 [1, 5] [nM] | IC50 [2, 4] [nM] | IC50 [2, 6] [nM]
1 | COc1cc2nc(NCCCCNC(=O)c3ccccn3)c3nnc(C)n3c2cc1OC [Example 105, pyridine-2-carboxylic acid-[4-(7,8-dimethoxy-1-methyl-[1,2,4]triazolo[4,3-a]quinoxaline-4-ylamino)-butyl]-amide] | 60 | – | 650 | –
2 | COc1cc2nc(NCCCCNC(=O)CC(C)C)c3nnc(C)n3c2cc1C(F)(F)F [Example 476, N-[4-(7-methoxy-1-methyl-8-trifluoromethyl-[1,2,4]triazolo[4,3-a]quinoxaline-4-ylamino)-butyl]-3-methyl-butyramide] | 34 | ≤ 50 | 480 | –
3 | Cc1nnc2c(NCCCCNC(=O)CC(C)C)nc3cc(OCCN4CCOCC4)ccc3n12 [Example 432, 3-methyl-N-{4-[1-methyl-7-(2-morpholine-4-yl-ethoxy)-[1,2,4]triazolo[4,3-a]quinoxaline-4-ylamino]-butyl}-butyramide] | 50 | ≤ 50 | 100 | ≤ 200
4 | Cc1nnc2c(NCCCCNC(=O)OCC(C)C)nc3cc4c(cc3n12)OCCO4 [Example 189, [4-(1-methyl-8,9-dihydro-7,10-dioxa-2,3,5,11b-tetraaza-cyclopenta[a]anthracene-4-ylamino)-butyl]-carbamic acid isobutylester] | 17 | ≤ 50 | 110 | ≤ 200
5 | CCCOC(=O)NCCCCNc1nc2cc(OCCOC)ccc2n2c(C)nnc12 [Example 367, {4-[7-(2-methoxy-ethoxy)-1-methyl-[1,2,4]triazolo[4,3-a]quinoxaline-4-ylamino]-butyl}-carbamic acid propylester] | 5 | ≤ 10 | 350 | –
6 | COc1ccc2c(c1)nc(NCCCCNC(=O)CC(C)C)c1nnc(C(F)(F)F)n12 [Example 590, N-[4-(7-methoxy-1-trifluoromethyl-[1,2,4]triazolo[4,3-a]quinoxaline-4-ylamino)-butyl]-3-methyl-butyramide] | 29 | ≤ 50 | 490 | –
7 | COc1cc2nc(NCCCCC(=O)NCc3ccccc3)c3nnc(C)n3c2cc1OC [Example 651, 5-(7,8-dimethoxy-1-methyl-[1,2,4]triazolo[4,3-a]quinoxaline-4-ylamino)-pentanoic acid-benzylamide] | 23 | ≤ 50 | 120 | ≤ 200
8 | Cc1nnc2c(NCCCCNC(=O)OC(C)(C)C)nc3cc(N4C[C@@H](C)O[C@@H](C)C4)ccc3n12 [Example 508, {4-[7-(2,6-dimethyl-morphonyl-4-yl)-1-methyl-[1,2,4]triazolo[4,3-a]quinoxaline-4-ylamino]-butyl}-carbamic acid-tert-butylester] | 29 | ≤ 50 | 575 | –
9 | COc1cc2nc(NCCCCNC(=O)C3CC3)c3nnc(C)n3c2cc1OC [Example 76, cyclopropane-carboxylic acid-[4-(7,8-dimethoxy-1-methyl-[1,2,4]triazolo[4,3-a]quinoxaline-4-ylamino)-butyl]-amide] | 38 | ≤ 50 | 870 | –
10 | Cc1nnc2c(NCCCCNC(=O)OC3CCCC3)nc3cc(OCCN4CCOCC4)ccc3n12 [Example 437, {4-[1-methyl-7-(2-morpholine-4-yl-ethoxy)-[1,2,4]triazolo[4,3-a]quinoxaline-4-ylamino]-butyl}-carbamic acid cyclopentylester] | 31 | ≤ 50 | 70 | ≤ 200
11 | COCCOc1cc2nc(NCCCCNC(=O)OC(C)(C)C)c3nnc(C)n3c2cc1OCCOC [Example 162, {4-[7,8-bis-(2-methoxy-ethoxy)-1-methyl-[1,2,4]triazolo[4,3-a]quinoxaline-4-ylamino]-butyl}-carbamic acid-tert-butylester] | 24 | ≤ 50 | 640 | –
12 | Cc1nnc2c(NCCCCNC(=O)OC(C)(C)C)nc3cc(N4CCOCC4)ccc3n12 [Example 497, [4-(1-methyl-7-morpholine-4-yl-[1,2,4]triazolo[4,3-a]quinoxaline-4-ylamino)-butyl]-carbamic acid-tert-butylester] | 38 | ≤ 50 | 730 | –
13 | Cc1nnc2c(NCCCCNC(=O)OC(C)C)nc3cc(-n4ccnc4)ccc3n12 [Example 494, [4-(7-imidazole-1-yl-1-methyl-[1,2,4]triazolo[4,3-a]quinoxaline-4-ylamino)-butyl]-carbamic acid isopropylester] | 14 | ≤ 50 | 110 | ≤ 200
14 | COc1ccc2c(c1)nc(NCCCCNC(=O)OC(C)(C)C)c1nnc(C)n12 [Example 275, [4-(7-methoxy-1-methyl-[1,2,4]triazolo[4,3-a]quinoxaline-4-ylamino)-butyl]-carbamic acid-tert-butylester] | 38 | ≤ 50 | 330 | –
15 | CCc1nnc2c(NCCCCNC(=O)OC(C)(C)C)nc3cc(OC)ccc3n12 [Example 620, [4-(7-methoxy-1-ethyl-[1,2,4]triazolo[4,3-a]quinoxaline-4-ylamino)-butyl]-carbamic acid-tert-butylester] | 16 | ≤ 50 | 700 | –

Now from value to compound, other results behind:

Row | IC50 [1, 3] [nM] | IC50 [1, 5] [nM] | SMILES | IC50 [2, 4] [nM] | IC50 [2, 6] [nM]
16 | 40 | ≤ 50 | COc1ccc2c(c1)nc(NCCCCNC(=O)C(C)(C)C(F)(F)F)c1nnc(C)n12 [Example 293, 3,3,3-trifluoro-N-[4-(7-methoxy-1-methyl-[1,2,4]triazolo[4,3-a]quinoxaline-4-ylamino)-butyl]-2,2-dimethyl-propaneamide] | 673 | –
17 | 20 | ≤ 50 | CCCOC(=O)NCCCCNc1nc2cc(OC)c(OC)cc2n2c(C)nnc12 [Example 64, [4-(7,8-dimethoxy-1-methyl-[1,2,4]triazolo[4,3-a]quinoxaline-4-ylamino)-butyl]-carbamic acid propylester] | 120 | ≤ 200
18 | 21 | ≤ 50 | C/C=C/C(=O)NCCCCNc1nc2cc(OC)c(OC)cc2n2c(C)nnc12 [Example 72, butene-2-oic acid-[4-(7,8-dimethoxy-1-methyl-[1,2,4]triazolo[4,3-a]quinoxaline-4-ylamino)-butyl]-amide] | 470 | –
19 | 51 | – | COc1cc2c(cc1F)nc(NCCCCNC(=O)CC(C)C)c1nnc(C)n12 [Example 575, N-[4-(7-fluoro-8-methoxy-1-methyl-[1,2,4]triazolo[4,3-a]quinoxaline-4-ylamino)-butyl]-3-methyl-butyramide] | 337 | –
20 | 18 | ≤ 50 | Cc1nnc2c(NCCCCNC(=O)NC3CCCCC3)nc3cc(-c4nc5ccccc5n4C)ccc3n12 [Example 239, 1-cyclohexyl-3-{4-[1-methyl-7-(1-methyl-1H-benzoimidazole-2-yl)-[1,2,4]triazolo[4,3-a]quinoxaline-4-ylamino]-butyl}-urea] | 660 | –
21 | – | ≤ 50 | Cc1nnc2c(NCCCCNC(=O)[C@@H](NC(=O)OCC(C)C)C(C)C)nc3cc(N4C[C@@H](C)O[C@@H](C)C4)ccc3n12 [Example 515, (S)-(1-{4-[7-(2,6-dimethyl-morpholine-4-yl)-1-methyl-[1,2,4]triazolo[4,3-a]quinoxaline-4-ylamino]-butylcarbamoyl}-2-methyl-propyl)-carbamic acid isobutylester] | 90 | ≤ 200
22 | 35 | ≤ 50 | COc1ccc2c(c1)nc(NCCCCNC(=O)[C@@H](NC(=O)C(C)(C)C)C(C)C)c1nnc(C)n12 [Example 323, (S)-2-(2,2-dimethyl-propionylamino)-N-[4-(7-methoxy-1-methyl-[1,2,4]triazolo[4,3-a]quinoxaline-4-ylamino)-butyl]-3-methyl-butyramide] | 107 | ≤ 200
23 | 31 | ≤ 50 | COc1cc2nc(NCCCCNC(=O)CC(C)C)c3nnc(C)n3c2cc1N [Example 556, N-[4-(8-amino-7-methoxy-1-methyl-[1,2,4]triazolo[4,3-a]quinoxaline-4-ylamino)-butyl]-3-methyl-butyramide] | 1 | ≤ 200
24 | 62 | – | CSc1ccc2c(c1)nc(NCCCCNC(=O)[C@@H](F)C(C)C)c1nnc(C)n12 [Example 357, 2-(S)-fluoro-3-methyl-N-[4-(1-methyl-7-methylsulfanyl-[1,2,4]triazolo[4,3-a]quinoxaline-4-ylamino)-butyl]-butyramide] | 44 | ≤ 200
25 | – | ≤ 50 | COc1ccc2c(nc(NCCCCNC(=O)CC(C)C)c3nnc(C)n32)c1Cl [Example 461, [4-(6-chloro-7-methoxy-1-methyl-[1,2,4]triazolo[4,3-a]quinoxaline-4-ylamino)-butyl]-3-methyl-butyramide] | 250 | –
26 | 1 | ≤ 10 | COc1cc2nc(-c3ccc4c(c3)nc(NCCCCNC(=O)CC(C)C)c3nnc(C)n34)[nH]c2cc1OC [Example 227, N-{4-[7-(5,6-dimethoxy-1H-benzoimidazole-2-yl)-1-methyl-[1,2,4]triazolo[4,3-a]quinoxaline-4-ylamino]-butyl}-3-methyl-butyramide] | 39 | ≤ 200
27 | 14 | ≤ 50 | COc1ccc2c(c1)nc(NCCCCNC(=O)[C@@H](NC(=O)CC(C)C)C(C)C)c1nnc(C)n12 [Example 322, (S)-N-[4-(7-methoxy-1-methyl-[1,2,4]triazolo[4,3-a]quinoxaline-4-ylamino)-butyl]-3-methyl-2-(3-methyl-butyrylamino)-butyramide] | 157 | ≤ 200
